Data as given in US5597820A, “1, 4-benzoxazine derivative and pharmaceutical compositions containing the same” (Kanebo, Ltd., priority 1994, dated 1997).

Experiments:
[1] = molecular target: T1, Na^+ /H^+ exchange (Rattus norvegicus, UniProt P26431); experiment: Na^+ /H^+ Exchange inhibitory activity (sodium propionate-induced swelling of platelets); type: cell-based, rat (male Wistar rats); details: rat platelet-rich plasma, 37° C.
T1 construct: A supernatant was separated to prepare platelet-rich plasma; endogenous in cells; host or cells: platelets in platelet-rich plasma from male Wistar rats (abdominal aorta blood)
Description: The compounds of the present invention were assessed for their Na^+ /H^+ exchange inhibitory activity based on an activity to inhibit sodium propionate-induced swelling of platelets in accordance with the method of Rosskoph et al. [Journal of Hypertension, 9, 231-238 (1991)].
First, platelet-rich plasma was prepared in accordance with the method of Mammen et al. [Diabetes Research and Clinical Practice, 9(3), 265-272 (1990)]. Briefly, male Wistar rats weighing 190 to 420 g were abdominally operated under anesthesia with ether and blood was taken from the abdominal aorta. For inhibiting blood coagulation, ACD solution (a mixture of 65 mM citric acid, 85 mM sodium citrate, 11 mM dextrose) was added to blood and this treated blood was centrifuged at 90× g for 10 minutes. A supernatant was separated to prepare platelet-rich plasma.
Then, a solution of the test compounds in dimethylsulfoxide was added to 140 mM sodium propionate buffer solution. To this mixture was added the platelet-rich plasma prepared above and a decrease in optical density was recorded with the passage of time at 37° C. using a platelet aggregometer (turbidimeter) and a X-Y recorder to calculate a decrease rate in optical density after mixing with platelet-rich plasma [decrease rate in optical density in the presence of the test compounds (D)]. On the other hand, the solvent dimethylsulfoxide alone was used instead of the solution of the test compounds and the decrease in optical density was recorded in the similar manner to calculate a decrease rate in optical density [control (C)]. A swelling inhibitory rate (%) was calculated using the following formula:
Swelling inhibitory rate (%)=(1-D/C)×100

[2] = test system: reperfusion arrhythmia; experiment: Inhibitory activity against reperfusion arrhythmia (rat acute myocardial infarction model); type: in vivo, rat (male Sprague-Dawley rats); details: femoral vein
Description: Using a rat acute myocardial infarction model, the compounds of the present invention were assessed for their inhibitory activity against reperfusion arrhythmia in accordance with the method of […] al. [European Journal of Pharmacology, 194, 7-10 (1991)]. Male Sprague-Dawley rats (weighing 310 to 490 g) were anesthetized by intraperitoneal administration of sodium pentobarbital (50 mg/kg). Under anesthesia, the rats were cannulated via trachea and the cannula was linked to a respirator. An electrocardiogram (the lead II) was obtained from electrodes attached to the limbs using bioelectric amplifier while maintaining the body temperature at 37° C. The chest of the rats were opened at the left fifth intercostal space and the pericardium was cut open to reveal the heart. Then a solution of the test compound in a mixed solvent of polyethylene glycol 400, ethanol and a physiological saline [3:3:14 (v/v)] was administered into the femoral vein. Ten minutes after the administration of the compound, the origin of the left coronary artery was occluded. After occlusion for 5 minutes, reperfusion was carried out for 10 minutes and a duration (second) of a ventricular fibrillation after reperfusion was measured from the electrocardiogram (mean±standard error, n=3 to 10). The ventricular fibrillation was assessed in accordance with the guideline of The Lambeth Convention [Cardiovascular Research, 22, 447-455 (1988)]. On the other hand, the mixed solvent of polyethylene glycol 400, ethanol and a physiological saline [3:3:14 (v/v)] alone was used as a control and a duration (second) of the ventricular fibrillation was measured in a similar manner. Using male Sprague-Dawley rats weighing 310 to 440 g, the duration (second) of the ventricular fibrillation was measured in the same manner as in Test 1 (n=4 to 10). Using male Sprague-Dawley rats weighing 310 to 400 g, the duration (second) of the ventricular fibrillation was measured in the same manner as in Test 1 (n=4 to 6).

[3] = test system: myocardial infarction lesion; experiment: Activity to reduce myocardial infarction lesion (rat acute myocardial infarction model); type: in vivo, rat (male Sprague-Dawley rats); details: femoral vein
Description: Using a rat acute myocardial infarction model, the compounds of the present invention were assessed for their activity to reduce myocardial infarction lesion in accordance with the method of Petty et al. [European Journal of Pharmacology, 192, 383-388 (1991)]. Male Sprague-Dawley rats (weighing 320 to 430 g) were anesthetized by intraperitoneal administration of sodium pentobarbital (50 mg/kg). Under anesthesia, the rats were cannulated via trachea and the cannula was linked to a respirator and then the body temperature was maintained at 37° C. The chest of the rats were opened at the left fifth intercostal space and the pericardium was cut open to reveal the heart. Then a solution of the test compound in a mixed solvent of polyethylene glycol 400, ethanol and a physiological saline [3:3:14 (v/v)] was administered into the femoral vein. Ten minutes after the administration of the compound, the origin of the left coronary artery was occluded. After occlusion for 30 minutes, reperfusion was carried out for 2 hours. After reperfusion, the heart was removed and the origin of the left coronary artery was ligated again. The heart was cannulated via the aorta and a 0.025% solution of Evans blue was perfused using a syringe pump to distinguish an ischemic region (not stained with Evans blue) and a non-ischemic region (stained with Evans blue). The ischemic region was incubated in a 0.1% triphenyltetrazolium chloride (TTC) solution at 37° C. for 30 minutes to distinguish a TTC-stained region and a non-stained region (infarction region).

[4] = Test 2 (Table 4), 0.1 mg/kg, control 146.1 ± 5.9, **: p < 0.01
[5] = Test 3 (Table 5), 0.1 mg/kg, control 171.0 ± 5.8, Example 19 *: p < 0.05, Example 21 **: p < 0.01
[6] = Test 2 (Table 7), 1 mg/kg, control 45.2 ± 4.1, **: p < 0.01

T1 sequence (P26431 whole entry): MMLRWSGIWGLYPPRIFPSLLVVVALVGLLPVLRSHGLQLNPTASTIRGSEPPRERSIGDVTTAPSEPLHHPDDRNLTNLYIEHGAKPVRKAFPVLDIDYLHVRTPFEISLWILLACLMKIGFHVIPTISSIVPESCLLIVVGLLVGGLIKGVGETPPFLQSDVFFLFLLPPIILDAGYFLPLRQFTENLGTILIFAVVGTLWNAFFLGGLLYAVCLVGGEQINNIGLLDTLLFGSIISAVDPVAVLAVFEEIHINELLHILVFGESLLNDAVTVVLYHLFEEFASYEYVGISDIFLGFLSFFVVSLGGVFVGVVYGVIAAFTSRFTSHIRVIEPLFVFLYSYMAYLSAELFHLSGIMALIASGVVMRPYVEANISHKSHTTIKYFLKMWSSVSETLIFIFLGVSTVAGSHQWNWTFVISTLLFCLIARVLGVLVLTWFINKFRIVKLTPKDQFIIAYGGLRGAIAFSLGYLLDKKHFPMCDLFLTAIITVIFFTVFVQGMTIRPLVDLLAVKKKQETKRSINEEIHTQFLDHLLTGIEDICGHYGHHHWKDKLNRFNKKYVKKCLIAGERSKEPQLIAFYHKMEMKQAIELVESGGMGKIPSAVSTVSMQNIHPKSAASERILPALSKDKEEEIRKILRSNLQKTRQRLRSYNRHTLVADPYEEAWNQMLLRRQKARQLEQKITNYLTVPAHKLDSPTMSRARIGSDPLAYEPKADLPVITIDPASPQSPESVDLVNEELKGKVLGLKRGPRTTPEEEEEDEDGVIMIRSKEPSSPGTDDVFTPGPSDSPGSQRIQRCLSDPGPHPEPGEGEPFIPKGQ

SMILES | IC50 [1] | Duration (second) of ventricular fibrillation (mean ± standard error) [2, 4] | Duration (second) of ventricular fibrillation (mean ± standard error) [2, 5] | Infarction region/ischemic region (%) (mean ± standard error) [3, 6] | also measured
CC(C)N1C(=O)C(C)(C)Oc2ccc(C(=O)NC(=N)N)cc21.Cl [Example 5, N-amidino-2,2-dimethyl-4-(2-propyl)-3-oxo-3,4-dihydro-2H-1,4-benzoxazine-6-carboxamide hydrochloride] | 120 nM | 80.2 ± 27.8 s |  |  | 
CC[C@@H]1Oc2cc(C(=O)NC(=N)N)ccc2N(CC)C1=O.Cl [Example 20, (S)-N-amidino-2,4-diethyl-3-oxo-3,4-dihydro-2H-1,4-benzoxazine-7-carboxamide hydrochloride] | 49 nM | 27.2 ± 27.2 s |  |  | 
CC1Oc2cc(C(=O)NC(=N)N)ccc2N(C(C)C)C1=O (centres unmarked) [Example 2, N-amidino-2-methyl-4-(2-propyl)-3-oxo-3,4-dihydro-2H-1,4-benzoxazine-7-carboxamide] | 94 nM |  |  |  | Duration (second) of ventricular fibrillation (mean ± standard error) ([2]; Test 1 (Table 3), 0.01 mg/kg, control 92.6 ± 20.2): 118.9 ± 59.4 s; Duration (second) of ventricular fibrillation (mean ± standard error) ([2]; Test 1 (Table 3), 0.1 mg/kg, control 92.6 ± 20.2, *: p < 0.05): 19.1 ± 12.4 s; Duration (second) of ventricular fibrillation (mean ± standard error) ([2]; Test 1 (Table 3), 1 mg/kg, control 92.6 ± 20.2, *: p < 0.05): 0.0 ± 0.0 s; Infarction region/ischemic region (%) (mean ± standard error) ([3]; Test 1 (Table 6), 0.01 mg/kg, control 51.4 ± 2.4): 41.7 ± 10.3%; Infarction region/ischemic region (%) (mean ± standard error) ([3]; Test 1 (Table 6), 0.1 mg/kg, control 51.4 ± 2.4): 35.6 ± 3.5%; Infarction region/ischemic region (%) (mean ± standard error) ([3]; Test 1 (Table 6), 1 mg/kg, control 51.4 ± 2.4, **: p < 0.01): 7.2 ± 4.9%
CC[C@@H]1Oc2cc(C(=O)NC(=N)N)ccc2N(CC)C1=O.CS(=O)(=O)O [Example 21, (S)-N-amidino-2,4-diethyl-3-oxo-3,4-dihydro-2H-1,4-benzoxazine-7-carboxamide methanesulfonate] | 89 nM |  | 69.0 ± 31.1 s |  | 
CC[C@H]1Oc2cc(C(=O)NC(=N)N)ccc2N(C(C)C)C1=O.Cl [Example 18, (R)-N-Amidino-2-ethyl-4-(2-propyl)-3-oxo-3,4-dihydro-2H-1,4-benzoxazine-7-carboxamide hydrochloride] | 38 nM | 31.4 ± 20.6 s |  | 21.7 ± 5.5% | Duration (second) of ventricular fibrillation (mean ± standard error) ([2]; Test 2 (Table 4), 0.01 mg/kg, control 146.1 ± 5.9): 75.5 ± 29.2 s; Duration (second) of ventricular fibrillation (mean ± standard error) ([2]; Test 2 (Table 4), 1 mg/kg, control 146.1 ± 5.9, **: p < 0.01): 0.0 ± 0.0 s
CC[C@H]1Oc2cc(C(=O)NC(=N)N)ccc2N(C(C)C)C1=O.CS(=O)(=O)O [Example 19, (R)-N-Amidino-2-ethyl-4-(2-propyl)-3-oxo-3,4-dihydro-2H-1,4-benzoxazine-7-carboxamide methanesulfonate] | 44 nM |  | 36.5 ± 32.2 s | 20.7 ± 5.2% | Duration (second) of ventricular fibrillation (mean ± standard error) ([2]; Test 3 (Table 5), 0.01 mg/kg, control 171.0 ± 5.8): 116.8 ± 40.2 s; Duration (second) of ventricular fibrillation (mean ± standard error) ([2]; Test 3 (Table 5), 1 mg/kg, control 171.0 ± 5.8, *: p < 0.05): 0.0 ± 0.0 s
